Results reported in publication PMC8198190, “The PFKFB3 Inhibitor AZ67 Inhibits Angiogenesis Independently of Glycolysis Inhibition” (International Journal of Molecular Sciences, 2021).

Molecular target: T1, PFKFB3 (6-phosphofructo-2-kinase/fructose-2,6-bisphosphatase-3) (Homo sapiens, UniProt Q16875)
T1 construct: recombinant human PFKFB3 produced in E. coli
Test: isothermal titration calorimetry (MicroCal Peaq-ITC, […] °C, triplicate)
Format: binding

T1 sequence (Q16875 whole entry): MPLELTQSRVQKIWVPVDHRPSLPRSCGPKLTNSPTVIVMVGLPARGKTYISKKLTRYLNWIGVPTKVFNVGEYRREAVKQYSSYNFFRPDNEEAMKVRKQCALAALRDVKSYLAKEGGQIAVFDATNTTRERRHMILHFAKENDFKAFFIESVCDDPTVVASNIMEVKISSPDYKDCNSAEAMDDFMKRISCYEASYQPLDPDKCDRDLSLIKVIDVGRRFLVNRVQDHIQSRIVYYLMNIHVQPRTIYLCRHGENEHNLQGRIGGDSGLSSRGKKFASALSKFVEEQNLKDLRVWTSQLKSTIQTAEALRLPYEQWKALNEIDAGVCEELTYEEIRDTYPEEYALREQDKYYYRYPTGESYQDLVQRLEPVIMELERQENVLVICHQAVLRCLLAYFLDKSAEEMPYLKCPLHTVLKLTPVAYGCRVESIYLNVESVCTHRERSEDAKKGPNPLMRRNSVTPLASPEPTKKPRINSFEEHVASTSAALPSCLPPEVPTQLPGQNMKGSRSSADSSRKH

Kd: 168 nM
Structure (SMILES): Cc1noc(C)c1Cn1cc(C#N)c2cc(Oc3ccc(NC(=O)[C@@H]4CCCN4)cc3)ccc21 [AZ67]
